In patent US20130158075A1, “HETEROCYCLIC COMPOUNDS AS DGAT1 INHIBITORS” (PIRAMAL ENTERPRISES LIMITED, priority 2010, published 2013):

Biological target: T1, hDGAT1 (Homo sapiens, UniProt O75907)
T1 construct: made in house; host or cells: Sf9 insect cells (baculovirus); microsomal fraction
T1 sequence (O75907 1-488): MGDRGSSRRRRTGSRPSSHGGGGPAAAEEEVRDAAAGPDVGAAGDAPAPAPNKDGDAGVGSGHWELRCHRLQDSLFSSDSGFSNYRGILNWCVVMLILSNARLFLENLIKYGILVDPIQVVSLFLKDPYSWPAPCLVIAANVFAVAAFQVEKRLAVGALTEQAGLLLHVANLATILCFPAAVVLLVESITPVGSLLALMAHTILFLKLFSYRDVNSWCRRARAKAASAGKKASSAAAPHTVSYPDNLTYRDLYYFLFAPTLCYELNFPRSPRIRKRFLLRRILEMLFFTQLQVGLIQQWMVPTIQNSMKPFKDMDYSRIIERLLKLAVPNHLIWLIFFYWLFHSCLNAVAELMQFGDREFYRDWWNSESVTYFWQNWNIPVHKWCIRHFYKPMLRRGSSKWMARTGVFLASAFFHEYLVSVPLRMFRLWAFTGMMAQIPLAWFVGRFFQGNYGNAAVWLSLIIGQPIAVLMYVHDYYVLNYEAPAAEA
Assay: In-vitro DGAT1 assay with hDGAT1 microsomes from Sf9 cells (14C oleoyl CoA, scintillation counting)
Assay type: biochemical
Details: for inhibition at 1 µM: read-out: Percentage inhibition of hDGAT1
Method: Sf9 cells were grown in T25 flasks containing Graces's Insect media with 10% FBS with antibiotic (100 units/mL penicillin, 100 μg/mL streptomycin sulphate, 0.25 μg/mL Amptotericin B as Fungizone) grown in a 27° C. incubator.
hDGAT10RF expression clone (RZPDo839C09146 in pDEST vector) was obtained from RZPD, German Science Center for Genomes research, Germany. hDGAT1 bacmid DNA was obtained by transformation of the hDGAT1 expression clone into DH10Bac E. coli competent cells. Approximately 1 μg of hDGAT1 bacmid DNA was infected into Sf9 cells with Cellfectin (Invitrogen) reagent. Following infection, Sf9 cells were incubated at 27° C. for 30 min. Five hours after infection, the media was replaced with growth media containing antibiotics (100 units/mL penicillin, 100 μg/mL streptomycin sulphate, 0.25 μg/mL Amptotericin B as Fungizone) and incubated at 27° C. for 72 h. The supernatant containing the virus was centrifuged at 1500×g for 5 min, passed through 0.22 μm filter, and subsequently stored at 4° C. The virus was further amplified three more times by re-infection of Sf9 cells and the viral titer was determined by plaque assay.
Sf9 cells were seeded in spinner flasks on day 0 at a cell density of 1×10^6 and infected on day 1 with hDGAT1 baculovirus at a multiplicity of infection (MOI) of 5 and a cell density of 2×10^6. On day 3 (or 66-72 h), cells were harvested and centrifuged at 2500×g for 10 min. Pellet was resuspended in lysis buffer (100 mM sucrose, 50 mM KCl, 40 mM KH2PO4, 30 mM EDTA, pH 7.2) and passed through 21-gauge needle approximately 10 times. The mixture was centrifuged at 12,000 rpm in a Sigma 12158-H rotor at 4° C. for 30 min. The supernatant was subjected to centrifugation at 35,000 rpm in a Beckman Ti-45 rotor at 4° C. for 1 h. The resultant pellet containing the microsomes wasere resuspended overnight in 1 mL of lysis buffer and total protein concentration was estimated using Bradford Reagent. Microsomes were aliquoted and stored at −80° C.
Frozen aliquots of hDGAT1 containing microsomes were thawed (5-10 mg/mL total protein) on ice and diluted to a working stock of 1 mg/mL with DGAT Assay Buffer (DAB). The DGAT reaction assay was performed by following the procedure described in U.S. Pat. No. 6,607,893 with some modifications that are described below.
1 mL stock solution of DGAT1 substrate mixture contains 5.6 μL of ^14C oleoyl CoA (16.8 nCi) and […] of 1,2-dioleoyl-sn-glycerol (1228.5 μM) 1,2-dioleoyl-sn-glycerol stock (19.5 mM) was prepared by dissolving 25 mg of 1,2-dioleoyl-sn-glycerol (Sigma, US) in 2060 μL of acetone.
The assay was performed in duplicates in a reaction volume of 100 μL.
The reaction was started by the addition of 2.5 μL of 1 mg/mL of microsomes (iv) to the mixture of (i), (ii) and (iii), and incubated at 37° C. for 10 min. The reaction was stopped by the addition of 300 μL of Alkaline Ethanol Stop Solution Mix [AESSM; 12.5% of 100% non-denatured ethanol, 10% deionized water, 2.5% 1N NaOH, 75% stop solution (78.4% isopropanol, 19.6% n-heptane, 2% deionized water)] followed by addition of 600 μL of n-heptane. The mixture was vortexed and the triglycerides formed were extracted into the organic heptane phase. 250 μL of the heptane phase was added into 4 mL scintillation cocktail (66.72% toluene, 33.3% TritonX-100, 0.5% PPO, 0.02% POPOP) and counted on a liquid scintillation counter for 1 min. Data was collected and plotted as a function of concentration in nM versus percentage inhibition of hDGAT1 by the compounds of present invention.

SMILES | inhibition at 1 µM | Percentage inhibition of hDGAT1 (at 1 μM)
Cc1ccc(Cl)c(NC(=O)Nc2ccc(-c3cnc(C4CCC(C(=O)O)CC4)s3)cc2)c1 (stereo not drawn) [Example 150, 4-(5-(4-(3-(2-Chloro-5-methylphenyl)ureido)phenyl)thiazol-2-yl)cyclohexane carboxylic acid] | > 50% | 
O=C(Nc1ccc(-c2cnc(C3CCC(C(=O)O)CC3)s2)cc1)Nc1cccc(Cl)c1F (stereo not drawn) [Example 152, 4-(5-(4-(3-(3-Chloro-2-fluorophenyl)ureido)phenyl)thiazol-2-yl)cyclohexane carboxylic acid] | > 50% | 
COc1ccc(NC(=O)Nc2ccc(-c3cnc(C4CCC(C(=O)O)CC4)s3)cc2)c(C)c1 (stereo not drawn) [Example 154, 4-(5-(4-(3-(4-Methoxy-2-methylphenyl)ureido)phenyl)thiazol-2-yl)cyclo hexanecarboxylic acid] | > 50% | 
O=C(Nc1ccc(-c2cnc(C3CCC(C(=O)O)CC3)s2)cc1)Nc1ccc2c(c1)OCO2 (stereo not drawn) [Example 156, 4-(5-(4-(3-Benzo[d][1,3]-dioxol-5-ylureido)phenyl)thiazol-2-yl)cyclohexane carboxylic acid] | > 50% | 
O=C(Nc1ccc(-c2cnc(C3CCC(C(=O)O)CC3)s2)cc1)Nc1c(Cl)cccc1C(F)(F)F (stereo not drawn) [Example 158, 4-(5-(4-(3-(2-Chloro-6-(trifluoromethyl)phenyl)ureido)phenyl)thiazol-2-yl)cyclohexanecarboxylic acid] | > 50% | 
O=C(Nc1ccc(-c2cnc(C3CCC(C(=O)O)CC3)s2)cc1)Nc1ccc(Cl)cc1C(F)(F)F (stereo not drawn) [Example 160, 4-(5-(4-(3-(4-Chloro-2-(trifluoromethyl)phenyl)ureido)phenyl)thiazol-2-yl)cyclohexanecarboxylic acid] | > 50% | 
Cc1cccc(Cl)c1NC(=O)Nc1ccc(-c2cnc(C3CCC(C(=O)O)CC3)s2)cc1 (stereo not drawn) [Example 162, 4-(5-(4-(3-(2-Chloro-6-methylphenyl)ureido)phenyl)thiazol-2-yl)cyclohexane carboxylic acid] | > 50% | 
Cc1ccc(Cl)cc1NC(=O)Nc1ccc(-c2cnc(C3CCC(C(=O)O)CC3)s2)cc1 (stereo not drawn) [Example 164] |  | ++ (>50 % Inhibition)
O=C(Nc1ccc(-c2cnc(C3CCC(C(=O)O)CC3)s2)cc1)Nc1ccccc1C(F)(F)F (stereo not drawn) [Example 166, 4-(5-(4-(3-(2-(Trifluoromethyl)phenyl)ureido)phenyl)thiazol-2-yl)cyclohexane carboxylic acid] | > 50% | 
O=C(Nc1ccc(-c2cnc(C3CCC(C(=O)O)CC3)s2)cc1)Nc1ccccc1OC(F)(F)F (stereo not drawn) [Example 168, 4-(5-(4-(3-(2-(Trifluoromethoxy)phenyl)ureido)phenyl)thiazol-2-yl)cyclo hexanecarboxylic acid] | > 50% | 
O=C(Nc1ccc(Oc2ccccc2)cc1)Nc1ccc(-c2cnc(C3CCC(C(=O)O)CC3)s2)cc1 (stereo not drawn) [Example 170, 4-(5-(4-(3-(4-Phenoxyphenyl)ureido)phenyl)thiazol-2-yl)cyclohexane carboxylic acid] | > 50% | 
O=C(Nc1ccc(-c2cnc(C3CCC(C(=O)O)CC3)s2)cc1)Nc1ccc(Cl)cc1F (stereo not drawn) [Example 172, 4-(5-(4-(3-(4-Chloro-2-fluorophenyl)ureido)phenyl)thiazol-2-yl)cyclohexane carboxylic acid] | > 50% | 
Cc1ccc(F)c(NC(=O)Nc2ccc(-c3cnc(C4CCC(C(=O)O)CC4)s3)cc2)c1 (stereo not drawn) [Example 174, 4-(5-(4-(3-(2-Fluoro-5-methylphenyl)ureido)phenyl)thiazol-2-yl)cyclohexane carboxylic acid] | > 50% | 
O=C(Nc1ccc(-c2cnc(C3CCC(C(=O)O)CC3)s2)cc1)Nc1c(F)cccc1C(F)(F)F (stereo not drawn) [Example 176, 4-(5-(4-(3-(2-Fluoro-6-(trifluoromethyl)phenyl)ureido)phenyl)thiazol-2-yl)cyclohexanecarboxylic acid] | 20 to 50% | 
O=C(Nc1ccc(-c2cnc(C3CCC(C(=O)O)CC3)s2)cc1)Nc1cccc(F)c1 (stereo not drawn) [Example 178, 4-(5-(4-(3-(3-Fluorophenyl)ureido)phenyl)thiazol-2-yl)cyclohexanecarboxylic acid] | > 50% | 
